The text below walks through data of PubChem BioAssay (NCI).

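Method: 48-hour compound exposure of cells in 96-well plates, five concentrations, linear interpolation of endpoints. GI50 marks 50% less growth. At the TGI there is no net growth.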

Some test systems named below: IGROV1 ovarian; KM12 colon; NCI-H460 lung; OVCAR-5 ovarian; OVCAR-8 ovarian; SK-MEL-2 melanoma; UACC-257 melanoma; A498 renal; T-47D breast; SF-268 CNS.
Test in all cases: NCI anticancer screen, dose series, 48 h

As to `COC1CCC(O)C(CO)O1` (stereo unspecified), the TGI in the assay on IGROV1 ovarian is 61.2 µM; in the assay with KM12 colon, greater than 100 µM; with NCI-H460 lung it was greater than 100 µM; in the assay with OVCAR-5 ovarian it was greater than 100 µM; in the assay on OVCAR-8 ovarian it was greater than 100 µM; in the assay with SK-MEL-2 melanoma, greater than 100 µM. The TGI in the assay with UACC-257 melanoma is greater than 100 µM.

`NCC(=O)N[C@H]1c2ccsc2/C(=N/O)[C@H]1O`: the TGI in the assay on A498 renal, in the assay with IGROV1 ovarian, in the assay on NCI-H460 lung, with OVCAR-5 ovarian, with OVCAR-8 ovarian and with SK-MEL-2 melanoma was greater than 100 µM throughout. In addition, the TGI with T-47D breast and with UACC-257 melanoma was greater than 100 µM in each case.

In the case of `COc1ccccc1C1C(C#N)=C(N)SC(N)=C1C#N`, the GI50 with A498 renal is greater than 100 µM; with IGROV1 ovarian, 11.1 µM; with KM12 colon, 37.8 µM; in the assay on NCI-H460 lung it was 49.8 µM; with OVCAR-5 ovarian it was greater than 100 µM; in the assay on OVCAR-8 ovarian, 90.4 µM. Also, the GI50 is 48.9 µM with SF-268 CNS, greater than 100 µM in the assay on SK-MEL-2 melanoma, 35.5 µM in the assay with T-47D breast and greater than 100 µM in the assay on UACC-257 melanoma. In addition, the TGI in the assay on A498 renal is greater than 100 µM; in the assay on IGROV1 ovarian, 70 µM; in the assay on KM12 colon, greater than 100 µM; in the assay on NCI-H460 lung, greater than 100 µM; with OVCAR-5 ovarian, greater than 100 µM; with OVCAR-8 ovarian, greater than 100 µM. Also, the TGI in the assay with SF-268 CNS, with SK-MEL-2 melanoma, in the assay on T-47D breast and in the assay on UACC-257 melanoma was greater than 100 µM throughout.

Consider `CCOC(=O)c1ccc(N2C(=O)/C(=C/c3ccc(N(CCC#N)CCC#N)cc3)N=C2c2cc([N+](=O)[O-])ccc2Cl)cc1`, for which the TGI in the assay on IGROV1 ovarian, in the assay on KM12 colon, with OVCAR-5 ovarian, in the assay with OVCAR-8 ovarian, with SF-268 CNS and in the assay with SK-MEL-2 melanoma was greater than 100 µM throughout.

As to `CC1OC1C(=O)P(=O)(O)O` (stereo unspecified), the TGI in the assay on A498 renal, in the assay on IGROV1 ovarian, with KM12 colon, with NCI-H460 lung, with OVCAR-5 ovarian and in the assay on OVCAR-8 ovarian was greater than 100 µM throughout. Further, the TGI with SF-268 CNS, with SK-MEL-2 melanoma, in the assay on T-47D breast and with UACC-257 melanoma was greater than 100 µM throughout.
